Data reported in patent publication US12371428B2 (Exelixis, Inc., priority 2019, dated 2025).

How the values were obtained:
[1] = target: Human KDR (residues 790-1356) (Homo sapiens (Human), UniProt P35968); assay: Human KDR kinase assay, HTRF KinEase (Example B-2); format: biochemical
Procedure: (§1) Kinase activity and compound inhibition were also investigated using the HTRF® KinEase assay (Cisbio Cat #62TKOPEB) per manufacturer's instructions. In short, compounds were delivered in 300 nL volumes at 10 different concentrations in DMSO (3% final) to empty 384-well assay plates (Corning cat #3824). A mixture of enzyme, […] biotynlated peptide substrate, and buffer in 10 μL volume was added. The assay was started upon the addition of ATP (at Km). The 10 μL reaction was incubated at room temperature. The reaction was stopped upon the addition of detection buffer containing streptavidin-XL665 ([…]) and TK antibody-Eu3+([…]). After a 60 min incubation at room temperature, the fluorescence at 665 nm and 620 nm was read on an Envision microplate reader (Perkin Elmer).
(§2) Kinase activity normalized to DMSO (100% activity) and reference compound at […] and (0% activity) was calculated using the fluorescence ratio […]. IC50 values were calculated by nonlinear regression analysis using a 4-parameter logistic curve fit in ActivityBase XE (IDBS).
(§3) Example B-2: Human KDR (residues 790-1356; CarnaBio, 0.1 ng/well) was also incubated with enzymatic buffer (Cisbio) supplemented with 5 mM MgCl2, 1 mM MnCl2, and 1 mM DTT. The mixture was added to the pre-plated compounds. The reaction was initiated upon addition of ATP at Km (4.0 μM). The reaction was incubated at room temperature for 40 min and stopped upon the addition of SA-XL665 and TK-antibody both diluted in EDTA-containing kinase detection buffer (Cisbio). The kinase activity was calculated as stated above and the IC50 values were reported.

[2] = target: Human MET (residues 956-1390) (Homo sapiens (Human), UniProt P08581); assay: Human Met kinase assay, HTRF KinEase (Example D-2); format: biochemical; conditions: protocol of Example D-2 (other compounds); read-out: c-Met IC50
Human MET (residues 956-1390), sequence (P08581 956-1390): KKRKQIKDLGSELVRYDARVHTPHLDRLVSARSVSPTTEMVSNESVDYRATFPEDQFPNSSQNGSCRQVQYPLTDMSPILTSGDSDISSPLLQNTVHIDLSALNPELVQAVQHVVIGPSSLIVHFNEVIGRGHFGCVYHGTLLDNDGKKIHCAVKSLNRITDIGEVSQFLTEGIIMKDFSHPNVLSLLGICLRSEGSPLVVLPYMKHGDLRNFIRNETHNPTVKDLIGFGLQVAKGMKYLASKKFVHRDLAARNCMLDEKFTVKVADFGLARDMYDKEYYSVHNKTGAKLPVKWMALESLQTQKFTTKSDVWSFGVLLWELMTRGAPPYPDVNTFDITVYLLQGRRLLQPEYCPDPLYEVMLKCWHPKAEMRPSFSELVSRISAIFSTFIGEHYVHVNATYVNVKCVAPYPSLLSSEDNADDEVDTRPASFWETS
Procedure: as §1, §2
as §3, with “D-2:” for “B-2:”, “MET” for “KDR”, “956-1390;” for “790-1356;”, “DTT” for “MnCl2,”, “MnCl2.” for “DTT.”, “The reaction was initiated upon addition of ATP at Km (4.0 μM).” left out

[3] = target: Human MER (residues 528-999) (Homo sapiens (Human), UniProt Q12866); assay: Human Mer kinase assay, HTRF KinEase (Example C-2); format: biochemical
Human MER (residues 528-999), sequence (Q12866 528-999): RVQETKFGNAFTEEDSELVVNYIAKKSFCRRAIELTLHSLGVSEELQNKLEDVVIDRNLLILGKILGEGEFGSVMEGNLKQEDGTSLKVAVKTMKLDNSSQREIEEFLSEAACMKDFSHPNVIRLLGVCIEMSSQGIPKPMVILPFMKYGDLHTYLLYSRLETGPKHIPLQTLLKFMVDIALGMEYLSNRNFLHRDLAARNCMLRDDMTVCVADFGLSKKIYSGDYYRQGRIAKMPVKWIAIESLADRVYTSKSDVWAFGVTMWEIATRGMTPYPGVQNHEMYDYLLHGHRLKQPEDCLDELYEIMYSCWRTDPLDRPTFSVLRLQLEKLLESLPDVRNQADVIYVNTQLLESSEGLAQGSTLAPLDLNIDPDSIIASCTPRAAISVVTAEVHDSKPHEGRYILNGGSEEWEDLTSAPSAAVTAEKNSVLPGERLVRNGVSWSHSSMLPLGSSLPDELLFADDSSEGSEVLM
Procedure: as §1, §2
Example C-2: Human MER (residues 528-999; CarnaBio, 1 ng/well) was also incubated with enzymatic buffer (Cisbio) supplemented with 5 mM MgCl2 and 1 mM DTT. The mixture was added to the pre-plated compounds. The reaction was initiated upon addition of ATP at Km (40 μM). The reaction was incubated at room temperature for 60 min and stopped upon the addition of SA-XL665 and TK-antibody both diluted in EDTA-containing kinase detection buffer (Cisbio). The kinase activity was calculated as stated above and the IC50 values were reported.

[4] = target: Met (phospho-Met, HGF-stimulated PC-3 prostate cancer cells) (Homo sapiens (Human), UniProt P08581); assay: Met autophosphorylation ELISA in PC-3 cells (Example F); format: cell-based; conditions: cellular activity; Met autophosphorylation ELISA in PC-3 cells; read-out: c-Met IC50
Met (phospho-Met, HGF-stimulated PC-3 prostate cancer cells), sequence (P08581 25-1390): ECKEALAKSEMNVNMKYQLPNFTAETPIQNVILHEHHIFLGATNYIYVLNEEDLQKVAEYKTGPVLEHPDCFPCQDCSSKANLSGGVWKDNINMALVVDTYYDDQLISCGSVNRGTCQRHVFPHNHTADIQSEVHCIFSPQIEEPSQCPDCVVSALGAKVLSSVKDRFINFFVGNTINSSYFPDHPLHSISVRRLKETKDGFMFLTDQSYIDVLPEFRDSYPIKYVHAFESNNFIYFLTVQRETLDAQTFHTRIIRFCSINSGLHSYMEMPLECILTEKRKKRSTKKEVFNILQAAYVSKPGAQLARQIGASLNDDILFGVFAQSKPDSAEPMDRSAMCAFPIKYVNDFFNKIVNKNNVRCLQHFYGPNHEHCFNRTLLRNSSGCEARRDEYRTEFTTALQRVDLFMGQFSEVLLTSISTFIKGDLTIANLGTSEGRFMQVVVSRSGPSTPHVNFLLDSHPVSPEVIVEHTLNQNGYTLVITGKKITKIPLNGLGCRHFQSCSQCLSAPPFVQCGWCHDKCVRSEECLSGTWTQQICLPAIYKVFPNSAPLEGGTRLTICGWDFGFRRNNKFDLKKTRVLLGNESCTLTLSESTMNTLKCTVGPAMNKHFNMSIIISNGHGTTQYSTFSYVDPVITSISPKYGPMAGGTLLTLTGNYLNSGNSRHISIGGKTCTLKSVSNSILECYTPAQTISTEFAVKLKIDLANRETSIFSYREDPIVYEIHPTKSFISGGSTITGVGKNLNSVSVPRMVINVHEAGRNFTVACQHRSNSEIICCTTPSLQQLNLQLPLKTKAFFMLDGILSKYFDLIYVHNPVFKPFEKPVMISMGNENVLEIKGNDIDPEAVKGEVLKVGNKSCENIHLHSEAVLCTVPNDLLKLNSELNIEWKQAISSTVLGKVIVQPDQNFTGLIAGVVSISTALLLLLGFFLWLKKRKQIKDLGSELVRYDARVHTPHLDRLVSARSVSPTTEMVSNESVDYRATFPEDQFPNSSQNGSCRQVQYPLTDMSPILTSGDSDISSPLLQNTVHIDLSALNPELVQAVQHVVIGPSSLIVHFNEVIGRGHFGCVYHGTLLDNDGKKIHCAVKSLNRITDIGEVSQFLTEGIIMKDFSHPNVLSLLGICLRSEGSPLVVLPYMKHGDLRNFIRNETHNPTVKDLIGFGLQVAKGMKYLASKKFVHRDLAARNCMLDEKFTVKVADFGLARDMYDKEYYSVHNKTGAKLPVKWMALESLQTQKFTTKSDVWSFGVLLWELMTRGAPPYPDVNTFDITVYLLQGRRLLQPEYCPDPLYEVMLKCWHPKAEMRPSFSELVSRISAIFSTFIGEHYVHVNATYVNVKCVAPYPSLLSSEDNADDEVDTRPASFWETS
Method in brief: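 PC-3 cells, serum-starved 3 h, were treated with compounds (8-point dose curve, 0.3% DMSO final) for 1 h, then stimulated with 100 ng/mL recombinant human HGF for 10 min. Lysate phospho-Met (panTyr) was quantified by sandwich ELISA; IC50 from 4-parameter logistic fit.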

[5] = target: Mer (phospho-Mer, MERTK-transfected 293A cells) (Homo sapiens (Human), UniProt Q12866); assay: Mer autophosphorylation ELISA in transient transfected 293A cells (Example H); format: cell-based; conditions: cellular activity; Mer autophosphorylation ELISA in transient transfected 293A cells
Method in brief: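 Inhibition of cellular Mer autophosphorylation is determined in 293A cells transiently expressing human MERTK after 1 h compound exposure (8 concentrations, serum-free, 0.3% DMSO). Phospho-Mer in clarified lysates is measured by ELISA, with DMSO and reference-inhibitor wells defining the 100% and 0% activity limits.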

[6] = target: KDR (phospho-KDR, VEGF165-stimulated HUVEC cells) (Homo sapiens (Human), UniProt P35968); assay: KDR autophosphorylation ELISA in HUVEC cells (Example G); format: cell-based; conditions: cellular activity; KDR autophosphorylation ELISA in HUVEC cells
KDR (phospho-KDR, VEGF165-stimulated HUVEC cells), sequence (P35968 20-1356): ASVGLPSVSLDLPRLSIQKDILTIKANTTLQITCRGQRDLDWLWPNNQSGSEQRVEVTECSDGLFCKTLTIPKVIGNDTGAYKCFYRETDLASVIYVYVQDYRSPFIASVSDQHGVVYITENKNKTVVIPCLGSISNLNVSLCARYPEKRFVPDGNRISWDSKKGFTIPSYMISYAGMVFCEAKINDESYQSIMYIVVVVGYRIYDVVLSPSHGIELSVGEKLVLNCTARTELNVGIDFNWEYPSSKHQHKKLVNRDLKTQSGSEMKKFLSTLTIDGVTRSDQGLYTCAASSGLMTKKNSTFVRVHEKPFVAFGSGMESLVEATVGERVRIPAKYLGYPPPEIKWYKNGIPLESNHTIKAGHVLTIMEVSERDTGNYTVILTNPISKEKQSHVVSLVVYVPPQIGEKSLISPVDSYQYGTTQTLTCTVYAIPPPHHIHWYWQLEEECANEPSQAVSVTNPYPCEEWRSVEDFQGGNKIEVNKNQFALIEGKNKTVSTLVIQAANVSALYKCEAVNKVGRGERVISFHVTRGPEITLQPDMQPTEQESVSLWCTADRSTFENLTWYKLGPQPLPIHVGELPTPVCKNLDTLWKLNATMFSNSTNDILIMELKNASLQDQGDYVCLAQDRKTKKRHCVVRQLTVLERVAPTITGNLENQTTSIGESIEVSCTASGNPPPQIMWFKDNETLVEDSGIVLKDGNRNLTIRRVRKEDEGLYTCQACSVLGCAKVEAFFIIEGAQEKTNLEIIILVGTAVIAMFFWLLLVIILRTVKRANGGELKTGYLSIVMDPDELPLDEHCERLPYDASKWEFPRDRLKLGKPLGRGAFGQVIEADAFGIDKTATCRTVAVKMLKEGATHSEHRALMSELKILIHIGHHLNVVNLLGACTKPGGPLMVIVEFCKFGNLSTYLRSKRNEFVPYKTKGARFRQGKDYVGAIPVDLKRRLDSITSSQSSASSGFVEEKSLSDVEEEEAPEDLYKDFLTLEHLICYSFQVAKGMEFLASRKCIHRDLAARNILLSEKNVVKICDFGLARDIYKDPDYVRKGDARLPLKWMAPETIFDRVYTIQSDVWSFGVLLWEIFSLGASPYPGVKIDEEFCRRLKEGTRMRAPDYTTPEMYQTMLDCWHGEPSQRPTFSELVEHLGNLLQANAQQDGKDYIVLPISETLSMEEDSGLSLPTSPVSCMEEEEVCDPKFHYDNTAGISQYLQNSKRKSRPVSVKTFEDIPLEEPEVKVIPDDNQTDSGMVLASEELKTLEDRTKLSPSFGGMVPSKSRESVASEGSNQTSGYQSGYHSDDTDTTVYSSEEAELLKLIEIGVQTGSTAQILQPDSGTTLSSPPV
Method in brief: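 IC50 values derive from nonlinear curve fitting of phospho-KDR levels measured by ELISA and interpolated from a phosphoprotein standard. Beforehand, starved HUVECs received compound (0.3% DMSO vehicle) for one hour and were activated with VEGF165 at 100 ng/mL for 5 min.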

[7] = protocol of Example B-2 (other compounds)
[8] = protocol of Example C-2 (other compounds)

Human KDR (residues 790-1356), sequence (P35968 790-1356): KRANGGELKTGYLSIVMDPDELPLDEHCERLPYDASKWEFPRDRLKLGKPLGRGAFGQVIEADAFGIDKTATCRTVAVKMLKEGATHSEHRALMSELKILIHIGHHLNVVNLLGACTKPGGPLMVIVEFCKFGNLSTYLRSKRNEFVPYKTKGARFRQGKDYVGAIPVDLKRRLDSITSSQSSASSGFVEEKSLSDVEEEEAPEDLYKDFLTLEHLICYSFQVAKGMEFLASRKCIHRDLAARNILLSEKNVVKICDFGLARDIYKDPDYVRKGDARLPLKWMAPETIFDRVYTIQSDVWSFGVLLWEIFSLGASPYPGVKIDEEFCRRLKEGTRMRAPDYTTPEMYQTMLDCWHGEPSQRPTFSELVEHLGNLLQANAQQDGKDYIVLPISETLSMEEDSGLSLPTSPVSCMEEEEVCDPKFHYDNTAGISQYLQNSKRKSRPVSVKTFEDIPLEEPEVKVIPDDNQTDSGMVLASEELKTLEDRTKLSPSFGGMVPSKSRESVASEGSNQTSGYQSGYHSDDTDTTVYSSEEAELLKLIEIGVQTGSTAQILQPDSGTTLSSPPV

| Structure (SMILES) | IC50 [1, 7] [nM] | IC50 [2] [nM] | IC50 [3, 8] [nM] | IC50 [4] [nM] | IC50 [5] [nM] | IC50 [6] [nM] | IC50 ([1]; protocol of Example B-2) [nM] | IC50 ([3]; protocol of Example C-2) [nM] |
| --- | --- | --- | --- | --- | --- | --- | --- | --- |
| COc1cc2nccc(Oc3ccc(NC(=O)c4cnc(NC(=O)OC(C)(C)C)n(-c5ccc(F)cc5)c4=O)cc3F)c2nc1OC [Compound 344, tert-butyl N-[5-[[4-[(6,7-dimethoxy-1,5-naphthyridin-4-yl)oxy]-3-fluorophenyl]icarbamoyl]-1-(4-fluorophenyl)-6-oxopyrimidin-2-yl]carbamate] | 100 to 300 | 100 to 300 | < 100 | – | – | – | – | – |
| Cc1ncc(C(=O)Nc2ccc(Oc3ccnc4cc(C(F)(F)F)cnc34)cc2)c(O)c1-c1ccc(F)cc1 [Compound 150, 5-(4-Fluorophenyl)-4-hydroxy-6-methyl-N-[4-[[7-(trifluoromethyl)-1,5-naphthyridin-4-yl]oxy]phenyl]pyridine-3-carboxamide] | > 300 | < 100 | < 100 | – | – | – | – | – |
| COc1cnc2c(Oc3ccc(NC(=O)c4c(C)c(Cl)c(C)n(-c5ccc(F)cc5)c4=O)cc3)ccnc2c1 [Compound 310, 5-Chloro-1-(4-fluorophenyl)-N-[4-[(7-methoxy-1,5-naphthyridin-4-yl)oxy]phenyl]-4,6-dimethyl-2-oxopyridine-3-carboxamide] | > 300 | – | 100 to 300 | < 100 | < 100 | > 300 | – | – |
| COc1ccc2nccc(Oc3ccc(NC(=O)c4c[nH]c(=O)n(-c5ccc(F)cc5)c4=O)cc3F)c2n1 [Compound 103, N-[3-Fluoro-4-[(6-methoxy-1,5-naphthyridin-4-yl)oxy]phenyl]-3-(4-fluorophenyl)-2,4-dioxo-1H-pyrimidine-5-carboxamide] | > 300 | < 100 | < 100 | – | – | – | – | – |
| O=C(Nc1ccc(Oc2ccnc3cccnc23)c(F)c1)c1cccn(-c2ccc(F)cc2)c1=O [Compound 304, N-[3-Fluoro-4-(1,5-naphthyridin-4-yloxy)phenyl]-1-(4-fluorophenyl)-2-oxopyridine-3-carboxamide] | > 300 | – | < 100 | < 100 | < 100 | 100 to 300 | – | – |
| COc1cc2nccc(Oc3ccc(NC(=O)c4ccnn(-c5ccc(F)cc5C)c4=O)cc3F)c2nc1OC [Compound 527, N-[4-[(6,7-dimethoxy-1,5-naphthyridin-4-yl)oxy]-3-fluorophenyl]-2-(4-fluoro-2-methylphenyl)-3-oxopyridazine-4-carboxamide] | – | – | – | < 100 | < 100 | < 100 | 100 to 300 | < 100 |
| CNC(=O)c1c(-c2ccc(F)cc2)c(=O)c(C(=O)Nc2ccc(Oc3ccnc4cc(OC)c(OC)nc34)c(F)c2)cn1C [Compound 563, 5-N-[4-[(6,7-Dimethoxy-1,5-naphthyridin-4-yl)oxy]-3-fluorophenyl]-3-(4-fluorophenyl)-2-N,1-dimethyl-4-oxopyridine-2,5-dicarboxamide] | – | – | – | < 100 | < 100 | > 300 | > 300 | < 100 |
| CNC(=O)Cc1cc2c(Oc3ccc(NC(=O)c4cnc(C)c(-c5ccc(F)cc5)c4O)cc3F)ccnc2cc1OC [Compound 376, N-[3-fluoro-4-[7-methoxy-6-[2-(methylamino)-2-oxoethyl]quinolin-4-yl]oxyphenyl]-5-(4-fluorophenyl)-4-hydroxy-6-methylpyridine-3-carboxamide] | < 100 | – | < 100 | < 100 | < 100 | < 100 | – | – |
| CCOc1c(C(=O)Nc2ccc(Oc3ccnc4cc(OC)c(OC)nc34)c(F)c2)nnc(C)c1-c1ccc(F)cc1 [Compound 569, N-[4-[(6,7-Dimethoxy-1,5-naphthyridin-4-yl)oxy]-3-fluorophenyl]-4-ethoxy-5-(4-fluorophenyl)-6-methylpyridazine-3-carboxamide] | – | – | – | < 100 | < 100 | < 100 | < 100 | < 100 |
| COc1cc2nccc(Oc3ccc(NC(=O)c4c(C)c(Br)c(C)n(-c5ccc(F)cc5)c4=O)cc3F)c2nc1OC [Compound 305, 5-Bromo-N-[4-[(6,7-dimethoxy-1,5-naphthyridin-4-yl)oxy]-3-fluorophenyl]-1-(4-fluorophenyl)-4,6-dimethyl-2-oxopyridine-3-carboxamide] | > 300 | – | < 100 | < 100 | < 100 | 100 to 300 | – | – |
| COc1cc2nccc(Oc3ccc(NC(=O)c4c(C)c(Cl)c(C)n(-c5ccc(F)cc5)c4=O)cc3)c2nc1OC [Compound 307, 5-Chloro-N-[4-[(6,7-dimethoxy-1,5-naphthyridin-4-yl)oxy]phenyl]-1-(4-fluorophenyl)-4,6-dimethyl-2-oxopyridine-3-carboxamide] | > 300 | – | < 100 | < 100 | < 100 | > 300 | – | – |
| COc1cc2nccc(Oc3ccc(NC(=O)c4c(C)c(C)c(C)n(-c5ccc(F)cc5)c4=O)cc3F)c2nc1OC [Compound 306, N-[4-[(6,7-Dimethoxy-1,5-naphthyridin-4-yl)oxy]-3-fluorophenyl]-1-(4-fluorophenyl)-4,5,6-trimethyl-2-oxopyridine-3-carboxamide] | > 300 | – | < 100 | < 100 | < 100 | 100 to 300 | – | – |
| COc1cc2nccc(Oc3ccc(NC(=O)c4c(C)c(Cl)c(C)n(-c5ccc(F)cc5)c4=O)cc3F)c2nc1OC [Compound 308, 5-Chloro-N-[4-[(6,7-dimethoxy-1,5-naphthyridin-4-yl)oxy]-3-fluorophenyl]-1-(4-fluorophenyl)-4,6-dimethyl-2-oxopyridine-3-carboxamide] | > 300 | – | < 100 | < 100 | < 100 | < 100 | – | – |
| CCOc1c(C)cn(-c2ccc(F)cc2)c(=O)c1C(=O)Nc1ccc(Oc2ccnc3cc(OC)c(OC)nc23)c(F)c1 [Compound 371, N-[4-[(6,7-dimethoxy-1,5-naphthyridin-4-yl)oxy]-3-fluorophenyl]-4-ethoxy-1-(4-fluorophenyl)-5-methyl-2-oxopyridine-3-carboxamide] | < 100 | – | < 100 | < 100 | < 100 | < 100 | – | – |
| COc1cnc2c(Oc3ccc(NC(=O)c4nn(C(C)C)c(C)c(-c5ccc(F)cc5)c4=O)cc3F)ccnc2c1 [Compound 566, N-[3-Fluoro-4-[(7-methoxy-1,5-naphthyridin-4-yl)oxy]phenyl]-5-(4-fluorophenyl)-6-methyl-4-oxo-1-propan-2-ylpyridazine-3-carboxamide] | – | – | – | < 100 | < 100 | > 300 | > 300 | < 100 |
| COc1ccc2nccc(Oc3ccc(NC(=O)c4cnc(C)n(-c5ccc(F)cc5)c4=O)cc3)c2n1 [Compound 385, 1-(4-fluorophenyl)-N-[4-[(6-methoxy-1,5-naphthyridin-4-yl)oxy]phenyl]-2-methyl-6-oxopyrimidine-5-carboxamide] | > 300 | – | < 100 | < 100 | < 100 | > 300 | – | – |
